In ChEMBL document CHEMBL1140916, “Structure-activity relationship of new anti-hepatitis C virus agents: heterobicycle-coumarin conjugates” (J Med Chem, 2009):

Tests used:
[1] = Cytotoxicity against HCV infected human Huh5-2 cells assessed as microscopically detectable alteration in cell morphology after 3 days; type: cell-based, Huh-5-2; settings: HCV infected Huh5-2 cells
[2] = Selectivity index, ratio of CC50 for human Huh 5-2 cells to EC50 for HCV
[3] = tested on: Hepatitis C virus; assay: Antiviral activity against HCV infected in human Huh5-2 cells assessed as reduction of virus-induced cytopathogenicity after 4 days; type: functional, organism-based, Hepacivirus hominis; settings: Huh-5-2, 96 h

Structure (SMILES)	EC50 [3] [µM]	CC50 at 72 h [1] [µM]	Ratio CC50/EC50 [2]
CC(=O)OC[C@H]1O[C@@H](n2c(SCc3ccc([N+](=O)[O-])cc3)nc3ccccc32)[C@H](OC(C)=O)[C@@H](OC(C)=O)[C@@H]1OC(C)=O	63	83	1.3
O=c1oc2ccc(Br)cc2cc1CSc1nc2cccnc2[nH]1	6.8	128	19
c1ccc2cc(CSc3nc4ccccc4[nH]3)ccc2c1	76	56	0.73
Clc1cc2nc(SCc3ccncc3)[nH]c2cc1Cl	100	107	1.1
O=c1oc2ccccc2cc1CSc1nc2ccccc2[nH]1	27	90	3.4
O=c1oc2ccc(Br)cc2cc1CSc1nc2ccccc2o1	12	131	11
COc1cccc2cc(CSc3nc4ccccc4s3)c(=O)oc12	29	40	1.4
COc1cccc2cc(CSc3nc4cncnc4[nH]3)c(=O)oc12	20	94	4.8
CC(=O)OC[C@H]1O[C@@H](n2c(SCc3cc4cc(Br)ccc4oc3=O)nc3ccccc32)C[C@@H](OC(C)=O)[C@@H]1OC(C)=O	4.1	16	4
CC(=O)OC[C@H]1O[C@@H](n2c(SCc3cc4cc(Br)ccc4oc3=O)nc3cc(Cl)c(Cl)cc32)C[C@@H](OC(C)=O)[C@@H]1OC(C)=O	1.8	11	6.4
COc1cccc2cc(CSc3nc4ccccc4o3)c(=O)oc12	19	18	0.96

Further compounds by falling EC50 [3], results first:

EC50 [3] [µM]	Structure (SMILES)	CC50 at 72 h [1] [µM]	Ratio CC50/EC50 [2]
199	Cc1ccc2[nH]c(SCc3ccncc3)nc2c1	199	1
197	Fc1ccc2[nH]c(SCc3ccccc3)nc2c1	197	1
184	Fc1ccc2[nH]c(SCc3ccncc3)nc2c1	196	1.1
104	CC(=O)OC[C@H]1O[C@@H](n2c(=S)[nH]c3ccccc32)[C@H](OC(C)=O)[C@@H](OC(C)=O)[C@@H]1OC(C)=O	104	1
80	O=c1oc2ccccc2cc1CSc1nc2ccccc2s1	153	1.9
59	O=c1oc2ccccc2cc1CSc1nc2cccnc2[nH]1	95	1.6
15	O=c1oc2ccccc2cc1CSc1nc2cc(Cl)c(Cl)cc2[nH]1	74	4.9
12	COc1cccc2cc(CSc3nc4ccccc4n3[C@H]3C[C@@H](OC(C)=O)[C@H](OC(C)=O)[C@@H](COC(C)=O)O3)c(=O)oc12	26	2.2
12	O=c1oc2ccccc2cc1CSc1nc2ccccc2o1	45	3.9
11	COc1cccc2cc(CSc3nc4cccnc4[nH]3)c(=O)oc12	30	2.8
10	COc1cccc2cc(CSc3nc4ccccc4[nH]3)c(=O)oc12	27	2.8
2	O=c1oc2ccccc2cc1CSc1nc2cncnc2[nH]1	109	54
